Data from patent publication EP3755703B1, “N-(PHENYL)-2-(PHENYL)PYRIMIDINE-4-CARBOXAMIDE DERIVATIVES AND RELATED COMPOUNDS AS HPK1 INHIBITORS FOR TREATING CANCER” (Incyte Corporation, priority 2018, dated 2019).

What follows are compounds tested against T1, HPK1 (Homo sapiens, UniProt Q92918) (assay: HPK1 Kinase Binding Assay). Settings: LanthaScreen tracer 222, one hour incubation at 25 °C.
T1 construct: purchased SignalChem M23-11G
T1 sequence (Q92918 1-346 limits assumed): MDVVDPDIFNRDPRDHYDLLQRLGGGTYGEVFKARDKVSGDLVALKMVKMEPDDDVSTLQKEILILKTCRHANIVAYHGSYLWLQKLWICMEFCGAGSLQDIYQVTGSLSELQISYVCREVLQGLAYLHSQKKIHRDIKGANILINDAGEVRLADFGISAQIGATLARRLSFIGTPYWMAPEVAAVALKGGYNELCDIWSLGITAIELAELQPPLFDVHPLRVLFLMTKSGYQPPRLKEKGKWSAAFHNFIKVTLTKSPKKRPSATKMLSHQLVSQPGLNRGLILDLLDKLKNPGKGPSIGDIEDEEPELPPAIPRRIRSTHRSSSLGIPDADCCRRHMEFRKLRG
Method: A stock solution of 1 mM test compound was prepared in DMSO. The compound plate was prepared by 3-fold and 11-point serial dilutions. 0.1 µL of the compound in DMSO was transferred from the compound plate to the white 384 well polystyrene plates. The assay buffer contained 50 mM HEPES, pH 7.5, 0.01% Tween-20, 5 mM MgCl2, 0.01% BSA, and 5 mM DTT. 5 µL of 4 nM active HPK1 (SignalChem M23-11G) prepared in the buffer was added to the plate. The enzyme concentration given was based on the given stock concentration reported by the vender. […] After one hour incubation at 25 °C, the plates were read on a PHERAstar FS plate reader (BMG Labtech). Ki values were determined.

| Ki [nM] | SMILES |
| --- | --- |
| < 100 | N[C@H]1C[C@@H](CO)N(c2ccc(F)cc2NC(=O)c2ccnc(-c3c(F)cccc3F)n2)C1 [Example 66, N-(2-((2S,4S)-4-Amino-2-(hydroxymethyl)pyrrolidin-1-yl)-5-fluorophenyl)-2-(2,6-difluorophenyl)pyrimidine-4-carboxamide] |
| < 100 | COc1cccc(F)c1-c1nccc(C(=O)Nc2cc(F)cc(-c3cccnc3)c2N2C[C@H]3C[C@@H]2CN3)n1 [Example 15, N-(2-((1R,4R)-2,5-Diazabicyclo[2.2.1]heptan-2-yl)-5-fluoro-3-(pyridin-3-yl)phenyl)-2-(2-fluoro-6-methoxyphenyl)pyrimidine-4-carboxamide] |
| < 100 | COc1cc(C)cc(F)c1-c1nccc(C(=O)Nc2ccc(-c3cnccc3C#N)cc2N2C[C@@H](N)C[C@H]2CO)n1 [Example 70, N-(2-((2S,4S)-4-Amino-2-(hydroxymethyl)pyrrolidin-1-yl)-4-(4-cyanopyridin-3-yl)phenyl)-2-(2-fluoro-6-methoxy-4-methylphenyl)pyrimidine-4-carboxamide] |
| < 100 | COc1cccc(F)c1-c1nccc(C(=O)Nc2cc(F)ccc2N2C[C@@H](O)C[C@@H]2C)n1 [Example 7, N-(5-Fluoro-2-((2S,4S)-4-hydroxy-2-methylpyrrolidin-1-yl)phenyl)-2-(2-fluoro-6-methoxyphenyl)pyrimidine-4-carboxamide] |
| < 100 | COc1cccc(F)c1-c1nccc(C(=O)Nc2cc(F)c(CNC3CCC3)cc2N2C[C@@H]3C[C@H]2CN3)n1 [Example 31, N-(2-((1S,4S)-2,5-Diazabicyclo[2.2.1]heptan-2-yl)-4-((cyclobutylamino)methyl)-5-fluorophenyl)-2-(2-fluoro-6-methoxyphenyl)pyrimidine-4-carboxamide] |
| < 100 | COc1cccc(F)c1-c1nccc(C(=O)Nc2ccc(-c3cnccc3C#N)cc2N2C[C@]3(CO)C[C@H]2CN3C)n1 [Example 99, N-(4-(4-Cyanopyridin-3-yl)-2-((1S,4S)-4-(hydroxymethyl)-5-methyl-2,5-diazabicyclo [2.2.1]heptan-2-yl)phenyl)-2-(2-fluoro-6-methoxyphenyl)pyrimidine-4-carboxamide] |
| < 100 | COc1ccc(F)c(F)c1-c1nccc(C(=O)Nc2ccc(-c3cnccc3C#N)cc2N2C[C@@H](N)C[C@H]2CO)n1 [Example 72, N-(2-((2S,4S)-4-Amino-2-(hydroxymethyl)pyrrolidin-1-yl)-4-(4-cyanopyridin-3-yl)phenyl)-2-(2,3-difluoro-6-methoxyphenyl)pyrimidine-4-carboxamide] |
| < 100 | Cc1c(F)ccc(F)c1-c1nccc(C(=O)Nc2ccc(-c3cnccc3C#N)cc2N2C[C@@H](N)C[C@H]2CO)n1 [Example 71, N-(2-((2S,4S)-4-Amino-2-(hydroxymethyl)pyrrolidin-1-yl)-4-(4-cyanopyridin-3-yl)phenyl)-2-(3,6-difluoro-2-methylphenyl)pyrimidine-4-carboxamide] |
| < 100 | COc1ccc(N2C[C@H]3C[C@@H]2CN3)c(NC(=O)c2ccnc(-c3c(F)cccc3OC)n2)c1 [Example 35, N-(2-((1R,4R)-2,5-Diazabicyclo[2.2.1]heptan-2-yl)-5-methoxyphenyl)-2-(2-fluoro-6-methoxyphenyl)pyrimidine-4-carboxamide] |
| < 100 | COc1cccc(F)c1-c1nccc(C(=O)Nc2ccc(-c3cnccc3C#N)cc2N2[C@@H]3CN[C@@H](C3)[C@@H]2CO)n1 [Example 56, N-(4-(4-Cyanopyridin-3-yl)-2-((1S,3R,4S)-3-(hydroxymethyl)-2,5-diazabicyclo [2.2.1]heptan-2-yl)phenyl)-2-(2-fluoro-6-methoxyphenyl)pyrimidine-4-carboxamide] |
| < 100 | COc1cccc(F)c1-c1nccc(C(=O)Nc2ccc(-c3cnccc3C#N)cc2N2CC[C@@H]2CN(C)C)n1 [Example 107, (R)-N-(4-(4-Cyanopyridin-3-yl)-2-(2-((dimethylamino)methyl)azetidin-1-yl)phenyl)-2-(2-fluoro-6-methoxyphenyl)pyrimidine-4-carboxamide] |
| < 100 | COc1cccc(F)c1-c1nccc(C(=O)Nc2cc(F)cc(-c3cnn(C)c3)c2N2C[C@H]3C[C@@H]2CN3)n1 [Example 16, N-(2-((1R,4R)-2,5-Diazabicyclo[2.2.1]heptan-2-yl)-5-fluoro-3-(1-methyl-1H pyrazol-4-yl)phenyl)-2-(2-fluoro-6-methoxyphenyl)pyrimidine-4-carboxamide] |
| < 100 | COc1cccc(F)c1-c1nccc(C(=O)Nc2cc(F)cc(Br)c2N2C[C@H]3C[C@@H]2CN3)n1 [Example 13, N-(2-((1R,4R)-2,5-Diazabicyclo[2.2.1]heptan-2-yl)-3-bromo-5-fluorophenyl)-2-(2-fluoro-6-methoxyphenyl)pyrimidine-4-carboxamide] |
| 100 to 500 | COc1cccc(F)c1-c1nccc(C(=O)Nc2ccccc2C2CCNCC2)n1 [Example 78, 2-(2-Fluoro-6-methoxyphenyl)-N-(2-(piperidin-4-yl)phenyl)pyrimidine-4-carboxamide] |
| < 100 | COc1cccc(F)c1-c1nccc(C(=O)Nc2cc(F)ccc2N2CCNC[C@H]2C)n1 [Example 10] |
| < 100 | N#Cc1ccncc1-c1ccc(NC(=O)c2ccnc(-c3c(F)cccc3C3CC3)n2)c(N2C[C@@H](N)C[C@H]2CO)c1 [Example 97, N-(2-((2S,4S)-4-Amino-2-(hydroxymethyl)pyrrolidin-1-yl)-4-(4-cyanopyridin-3-yl)phenyl)-2-(2-cyclopropyl-6-fluorophenyl)pyrimidine-4-carboxamide] |
| < 100 | Cc1cccc(F)c1-c1nccc(C(=O)Nc2ccc(-c3cnccc3C#N)cc2N2C[C@@H](N)C[C@H]2CO)n1 [Example 63, N-(2-((2S,4S)-4-Amino-2-(hydroxymethyl)pyrrolidin-1-yl)-4-(4-cyanopyridin-3-yl)phenyl)-2-(2-fluoro-6-methylphenyl)pyrimidine-4-carboxamide] |
| < 100 | COc1cccc(F)c1-c1nccc(C(=O)Nc2ccc(-c3cnccc3C#N)cc2N2C[C@@H](N)C[C@H]2C2(O)CC2)n1 [Example 53, N-(2-((2S,4S)-4-Amino-2-(1-hydroxycyclopropyl)pyrrolidin-1-yl)-4-(4-cyanopyridin-3-yl)phenyl)-2-(2-fluoro-6-methoxyphenyl)pyrimidine-4-carboxamide] |
| < 100 | COc1cccc(F)c1-c1nccc(C(=O)Nc2cc(F)ccc2N2CCC[C@@H]2CN)n1 [Example 3, (R)-N-(2-(2-(Aminomethyl)pyrrolidin-1-yl)-5-fluorophenyl)-2-(2-fluoro-6-methoxyphenyl)pyrimidine-4-carboxamide] |
| < 100 | COc1cccc(F)c1-c1nccc(C(=O)Nc2ccc(-c3cnccc3C#N)cc2N2CCO[C@@H](CN(C)C)C2)n1 [Example 101, (S)-N-(4-(4-Cyanopyridin-3-yl)-2-(2-((dimethylamino)methyl)morpholino)phenyl)-2-(2-fluoro-6-methoxyphenyl)pyrimidine-4-carboxamide] |
| < 100 | CCCNC(=O)N1C[C@H]2C[C@@H]1CN2c1ccc(F)cc1NC(=O)c1ccnc(-c2c(F)cccc2OC)n1 [Example 34, (1R,4R)-5-(4-Fluoro-2-(2-(2-fluoro-6-methoxyphenyl)pyrimidine-4-carboxamido)phenyl)-N-propyl-2,5-diazabicyclo[2.2.1]heptane-2-carboxamide] |
| < 100 | COc1cccc(F)c1-c1nccc(C(=O)Nc2ccc(C(C)C)cc2N2C[C@@H](N)C[C@H]2CO)n1 [Example 48, N-(2-((2S,4S)-4-Amino-2-(hydroxymethyl)pyrrolidin-1-yl)-4-isopropylphenyl)-2-(2-fluoro-6-methoxyphenyl)pyrimidine-4-carb oxamide] |
| < 100 | COc1cccc(F)c1-c1nccc(C(=O)Nc2cc(F)ccc2N2C[C@H]3C[C@@H]2CN3CCO)n1 [Example 33, N-(5-Fluoro-2-((1R,4R)-5-(2-hydroxyethyl)-2,5-diazabicyclo[2.2.1]heptan-2-yl)phenyl)-2-(2-fluoro-6-methoxyphenyl)pyrimidine-4-carboxamide] |
| < 100 | COc1cccc(F)c1-c1cccc(C(=O)Nc2ccc(-c3cnccc3C#N)cc2N2C[C@@H](N)C[C@H]2CO)n1 [Example 59, N-(2-((2S,4S)-4-Amino-2-(hydroxymethyl)pyrrolidin-1-yl)-4-(4-cyanopyridin-3-yl)phenyl)-6-(2-fluoro-6-methoxyphenyl)picolinamide] |
| < 100 | COc1ccc(F)c(F)c1-c1nccc(C(=O)Nc2cc(F)ccc2N2C[C@@H](N)C[C@H]2CO)n1 [Example 68, N-(2-((2S,4S)-4-Amino-2-(hydroxymethyl)pyrrolidin-1-yl)-5-fluorophenyl)-2-(2,3-difluoro-6-methoxyphenyl)pyrimidine-4-carboxamide] |
| < 100 | COc1cccc(F)c1-c1nccc(C(=O)Nc2ccccc2C2CCC(N)C2)n1 (stereo not drawn) [Example 81, N-(2-(3-aminocyclopentyl)phenyl)-2-(2-fluoro-6-methoxyphenyl)pyrimidine-4-carboxamide] |
| < 100 | N#Cc1ccncc1-c1ccc(NC(=O)c2ccnc(-c3c(F)cccc3F)n2)c(N2C[C@@H](N)C[C@H]2CO)c1 [Example 62, N-(2-((2S,4S)-4-Amino-2-(hydroxymethyl)pyrrolidin-1-yl)-4-(4-cyanopyridin-3-yl)phenyl)-2-(2,6-difluorophenyl)pyrimidine-4-carboxamide] |
